# From article PMC4903021 (Organic letters, 2016)
# Biological target: T1, CazL (Chaetomium globosum, UniProt Q2GWL0)
# T1 sequence (Q2GWL0 1-455): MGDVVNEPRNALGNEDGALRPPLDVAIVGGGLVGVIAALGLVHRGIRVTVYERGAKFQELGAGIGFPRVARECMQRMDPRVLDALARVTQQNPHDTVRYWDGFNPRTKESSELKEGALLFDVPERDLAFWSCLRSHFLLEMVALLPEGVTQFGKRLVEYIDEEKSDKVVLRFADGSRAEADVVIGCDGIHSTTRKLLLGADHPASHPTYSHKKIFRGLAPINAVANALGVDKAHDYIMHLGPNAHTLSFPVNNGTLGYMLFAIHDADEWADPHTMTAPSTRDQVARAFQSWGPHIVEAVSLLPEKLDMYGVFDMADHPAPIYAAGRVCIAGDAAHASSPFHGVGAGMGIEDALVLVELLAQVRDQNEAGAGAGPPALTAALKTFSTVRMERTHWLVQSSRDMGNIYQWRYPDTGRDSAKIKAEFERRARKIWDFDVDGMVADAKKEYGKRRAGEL
# Test: initial velocity kinetics of pyranoquinone formation
# Format: biochemical
# Conditions: formation of 5
substance,measurement,value
cazaldehyde A [compound 1],Km,73 ± 9.93 µM
